# Source: PMC9846164, “Oral administration of VDAC1-derived small molecule peptides increases circulating testosterone levels in male rats” (Frontiers in Endocrinology, 2023)
# “Also recorded” adds a separate entry of the source. Square brackets hold non-standard residues; d marks the D form. Peptide text beside a SMILES is read from it.
# Tests used:
# [1] = Peptide stability in plasma; format: in vitro ADME; conditions: 4 µM peptide (KVSQ 12.5 µM) in 100 µl Brown-Norway rat plasma, 37°C, 1-120 minutes, methanol crash, LC-MS/MS SRM, % of 1 min level, N=3 mean ± SEM, Figure 4J
# Description: For peptide stability experiments, plasma from Brown-Norway rats aged 90-140 days was collected and stored at -20°C until further use. The plasma was thawed, spun at 12,000 RPM for 10 min, and kept at 4°C. 4 μM of the various peptides were incubated with 100 μL of plasma that was warmed at 37°C for 10 min before use. After 1, 15, 30, 60, 90 or 120 minutes, the plasma/peptide samples were crashed with 300 µL of 100% methanol, spun at 14,000 RPM for 10 min, and the supernatant collected. The methanol in the supernatant was evaporated and the samples were re-extracted. The final pellet was solubilized in 5 μL methanol followed by the addition of 100 μL of sterile double distilled water. The extracted samples were transferred to plastic tubes and placed in the autoloader of the mass spectrometer.
# (§1) The analytical instrumentation consisted of a Thermo-Scientific ISQ Quantiva Triple Quadrupole Mass Spectrometer (QQQ), incorporating a heated electrospray ionization (HESI) source, and a Thermo-Scientific UltiMate™ 3000 UHPLC system (including, UltiMate™ 3000 RS autosampler). Analytical conditions were developed using a reference standard in a solution containing 5 µM of the corresponding peptide. The chromatography was resolved by isocratic elution of a binary solvent system incorporating (A) 0.1% Formic Acid (aq) and (B) ACN + 0.1% FA and using an Agilent Eclipse Plus™ C18 analytical column (100mm X 2.1mm ID, 1.8 µm particle). A 5µL injection volume and solvent flow rate of 150 µL/min were used. The MS/MS acquisition time was 7 min and total run time was 8.3 min/injection. The triple Quadrupole MS/MS instrumentation conditions were as follows: the HESI source voltage was 3200 V, the sheath gas […], auxilirary gas 20 L/min, sweep gas 2.0 L/min, the ion transfer temperature was 350°C, the vaporizer temperature was 350°C, the CID gas was 1.5 (mTorr) and the dwell time was 100 msec. The Q1 Resolution (FWHM) was 0.4 (unitless) and the Q3 resolution (FWHM) was 0.7 (unitless). The instrument ran in a selected reaction monitoring (SRM), positive ion detection mode at various collision energies (CE) for the following mass transitions: […]
# [2] = RdVTQ stability on storage (mass-spec area under the curve); format: physicochemical; conditions: fresh vs in distilled water at 37°C for 7 - 28 days, freeze/thaw, stored at -20°C; Figure 5F
# Description: as §1
# Brown-Norway rats [3] = assay: Oral gavage of peptides; plasma testosterone and corticosterone; format: in vivo, rat; conditions: ~10 µg/kg oral, 2 hrs after gavage
# Description: All peptides were dissolved in molecular grade, sterile double distilled water to obtain a 1 mM stock solution and stored at -20°C. Peptides used for oral screenings were prepared from 1 mM peptide stock and diluted in sterile tap water in a total volume of 1 ml.
# All samples were measured in duplicate according to each of the manufacturer’s instructions. Serum, plasma, or intratesticular fluid samples were diluted until controls fitted the middle of the standard curve used.
# Brown-Norway rats [4] = assay: Oral pharmacokinetics after single oral dose; format: in vivo, rat; conditions: single oral dose 10 mg in 1 ml; protease inhibitor cocktail in tubes for KVSQ and RVTQ; LC-MS/MS
# Description: (§2) For all oral experiments, administration via gavage began between 8:30-8:50 am with a 3-minute delay between each rat. Animals used for pharmacokinetic studies were fasted for 4 hrs before starting gavage at 1 pm with a 3-minute delay between each rat.
# (§3) For oral pharmacokinetic experiments, jugular blood samples were collected following a single oral dose of 10 mg peptide in 1 ml of vehicle after 5, 15, 30, 45, 60, 90, and 120 minutes. Protein inhibitor cocktail (ROCHE, cOmplete protease inhibitors, Cat# 11697498001), which was added into the EDTA collection tubes, was used for KVSQ and RVTQ peptides. Plasma was immediately extracted, and 100 μL of plasma were crashed with 300 µL of 100% methanol, spun at 14,000 RPM for 10 min, and the supernatant harvested. Re-extraction of the precipitant and solubilization of the pellet were as described above.
# as §1, with “(unitless).” for “(unitless). The instrument ran in a selected reaction monitoring (SRM), positive ion detection mode at various collision energies (CE) for the following mass transitions:”
# [5] = Oral pharmacokinetics after single oral dose; format: in vivo, rat; conditions: Brown-Norway, rat; single oral dose 10 mg peptide in 1 ml, fasted 4 hrs, jugular plasma 5-120 minutes, LC-MS/MS, N=4 in two rounds, Figure 4K; read-out: time to peak concentration in blood (converted)
# Description: as §2, §3
# as §1, with “(unitless).” for “(unitless). The instrument ran in a selected reaction monitoring (SRM), positive ion detection mode at various collision energies (CE) for the following mass transitions:”
SMILES,half-life in plasma (rank order) [1],other results
CC(C)[C@@H](NC(=O)[C@@H](N)CCCNC(=N)N)C(=O)N[C@H](C(=O)N[C@@H](CCC(N)=O)C(=O)O)[C@@H](C)O [RdVTQ] (H-R[dV]TQ-OH),Ac-RITQdS-CONH2 > RdVTQ > Ac-RdITQ-CONH2 > RITQ > RVTQ > KVSQ,stability (area under the curve by mass-spec) [2]: highly stable
CC[C@@H](C)[C@@H](NC(=O)[C@H](CCCCN)NC(C)=O)C(=O)N[C@H](C(=O)N[C@@H](CCC(N)=O)C(N)=O)[C@@H](C)O [Ac-KdITQ-CONH2] (Ac-K[dI]TQ-NH2),–,"average testosterone levels at ~10 µg/kg (Brown-Norway rats [3]): increased, although not significantly"
CC[C@H](C)[C@H](NC(=O)[C@@H](N)CCCNC(=N)N)C(=O)N[C@H](C(=O)N[C@@H](CCC(N)=O)C(=O)O)[C@@H](C)O [RITQ] (H-RITQ-OH),Ac-RITQdS-CONH2 > RdVTQ > Ac-RdITQ-CONH2 > RITQ > RVTQ > KVSQ,–
CC[C@@H](C)[C@@H](NC(=O)[C@H](CCCNC(=N)N)NC(C)=O)C(=O)N[C@H](C(=O)N[C@@H](CCC(N)=O)C(N)=O)[C@@H](C)O [Ac-RdITQ-CONH2] (Ac-R[dI]TQ-NH2),Ac-RITQdS-CONH2 > RdVTQ > Ac-RdITQ-CONH2 > RITQ > RVTQ > KVSQ,–
CC(C)[C@H](NC(=O)[C@@H](N)CCCNC(=N)N)C(=O)N[C@H](C(=O)N[C@@H](CCC(N)=O)C(=O)O)[C@@H](C)O [RVTQ] (H-RVTQ-OH),Ac-RITQdS-CONH2 > RdVTQ > Ac-RdITQ-CONH2 > RITQ > RVTQ > KVSQ,detection in rat plasma after oral dose (Brown-Norway rats [4]): not detected
CC[C@H](C)[C@H](NC(=O)[C@H](CCCNC(=N)N)NC(C)=O)C(=O)N[C@H](C(=O)N[C@@H](CCC(N)=O)C(=O)N[C@H](CO)C(N)=O)[C@@H](C)O [Ac-RITQdS-CONH2] (Ac-RITQ[dS]-NH2),Ac-RITQdS-CONH2 > RdVTQ > Ac-RdITQ-CONH2 > RITQ > RVTQ > KVSQ,Tmax [5]: ~15 min
CC(C)[C@H](NC(=O)[C@@H](N)CCCCN)C(=O)N[C@@H](CO)C(=O)N[C@@H](CCC(N)=O)C(=O)O [KVSQ] (H-KVSQ-OH),rapid degradation; also recorded: Ac-RITQdS-CONH2 > RdVTQ > Ac-RdITQ-CONH2 > RITQ > RVTQ > KVSQ,detection in rat plasma after oral dose (Brown-Norway rats [4]): not detected
